Bounds are passed on as bounds.

The target of the assay is T1, human Nav1.8 (hNav1.8) ion channel (Homo sapiens, UniProt Q9Y5Y9).
T1 construct: expressed in transfected cells
Briefly: Nav1.8 inhibition, estimated IC50 (Nav1.8 fluorescence, PatchXpress and/or IonFlux HT automated patch clamp assay). The class given is cell-based. As to conditions: HEK293 cells stably expressing hNav1.8; determined using one or more of the described methods; read-out: Activity range (estimated IC50). As to the method: The ability of pyridine carboxamide derivatives exemplified above to inhibit the Nav1.8 channel was determined using one or more of the methods described below.
HEK Nav1.8 β1/β2 Stably Expressing Cell Line
A HEK293 cell line stably expressing the human Nav1.8 (hNav1.8) ion channel with β1/β2 subunits was constructed. The cell line is suitable for IC50 determination in fluorescence and electrophysiological based assays. It is also suitable to conduct mechanism of action pharmacology studies in electrophysiological assays. HEK293 Nav1.8 cells are grown as adherent monolayers in DMEM/high glucose media, 10% fetal bovine serum, Na pyruvate (2 mM), Hepes (10 mM) with selection agents G418 (400 mg/L) and puromycin (0.5 mg/L) at 37 degrees C., 10% CO2.
Nav1.8 Fluorescence Inhibition Assay
Compounds were made up to or supplied as a 10-mM stock solution using DMSO as the vehicle. Concentration-response curves were generated using a Matrix multichannel pipettor. Compound source plates were made by diluting 10 mM compound stocks to create 500 μM (100×) solutions in DMSO in 96-well v-bottom plates. Compounds were then serially diluted in 100% DMSO to generate a 5 point, 4-fold dilution scheme dose response curve. 2 μL of the 100× dose response curves were then added to preincubation and stimulation assay plates. 100 μL of pre-incubation buffer and 200 μl of stimulation buffer was then added to the plates resulting in a final assay test concentration range of 5 μM to 0.02 μM with a final DMSO concentration of 1%.
On the day of assay, plates were washed to remove cell culture media using 2K EBSS buffer (135 mM NaCl, 2 mM KCl, 5 mM Glucose, 2 mM CaCl2, 1 mM MgCl2, 10 mM HEPES, pH 7.4). The Na-sensitive fluorescent dye, Asante Natrium Green-2 (ANG-2) was incubated for 60 min to allow equilibration and then washed with 2K EBSS. Plates were then transferred to a fluorescence plate reader (FLIPR™, Molecular Devices) for fluorescence measurement using an excitation wavelength of 490 nm and an emission wavelength of 565 nm. Compounds were pre-incubated for 5 min at final test concentration in the presence of ouabain (30 μM) to inhibit Na+ efflux through Na+/K+ exchanger. Following the pre-incubation phase, hNav1.8 channels were stimulated with 10 μM of the pyrethroid deltamethrin to prevent channel inactivation. The assay was run for 15 minutes with vehicle and 30 μM tetracaine serving as negative and positive controls, respectively. The peak change in fluorescence relative to negative and positive control wells was calculated and fit with a logistic equation to determine IC50.
PatchXpress Nav1.8 Inhibition Assay
HEK-Nav1.8 β1/β2 cells were recorded in whole cell patch-clamp using the PatchXpress automated patch clamp platforms (Molecular Devices). Cell suspensions were obtained by trypsinization of adherent monolayers, followed by gentle rocking for minimally 30 min. Compounds were prepared from 10 mM DMSO stocks.
Nav1.8 channel variants were evaluated using Protocol 1 in which cells were initially voltage clamped at a holding potential of −100 mV to maintain Nav1.8 in a closed resting state. After current amplitude becomes stable, the mid-point voltage of steady state inactivation was determined for each cell using a series of 5 sec conditioning steps to increasingly depolarized voltages (−100 to 0 mV) The holding potential was then reset to a voltage that produces ˜50% inactivation (Vhalf-set automatically via PatchXpress scripts) so that closed and inactivated channel inhibition could be assessed. Protocol 1 was run at a frequency of 0.1 Hz until current amplitude is steady (automatically determined by PatchXpress scripts). The effect of test reagent on Nav current amplitude was monitored using custom PatchXpress stability scripts which determines the timing of compound addition and washout.
Data were processed and analyzed using DataXpress 2.0 (Molecular Devices). […]

T1 sequence (Q9Y5Y9 whole entry): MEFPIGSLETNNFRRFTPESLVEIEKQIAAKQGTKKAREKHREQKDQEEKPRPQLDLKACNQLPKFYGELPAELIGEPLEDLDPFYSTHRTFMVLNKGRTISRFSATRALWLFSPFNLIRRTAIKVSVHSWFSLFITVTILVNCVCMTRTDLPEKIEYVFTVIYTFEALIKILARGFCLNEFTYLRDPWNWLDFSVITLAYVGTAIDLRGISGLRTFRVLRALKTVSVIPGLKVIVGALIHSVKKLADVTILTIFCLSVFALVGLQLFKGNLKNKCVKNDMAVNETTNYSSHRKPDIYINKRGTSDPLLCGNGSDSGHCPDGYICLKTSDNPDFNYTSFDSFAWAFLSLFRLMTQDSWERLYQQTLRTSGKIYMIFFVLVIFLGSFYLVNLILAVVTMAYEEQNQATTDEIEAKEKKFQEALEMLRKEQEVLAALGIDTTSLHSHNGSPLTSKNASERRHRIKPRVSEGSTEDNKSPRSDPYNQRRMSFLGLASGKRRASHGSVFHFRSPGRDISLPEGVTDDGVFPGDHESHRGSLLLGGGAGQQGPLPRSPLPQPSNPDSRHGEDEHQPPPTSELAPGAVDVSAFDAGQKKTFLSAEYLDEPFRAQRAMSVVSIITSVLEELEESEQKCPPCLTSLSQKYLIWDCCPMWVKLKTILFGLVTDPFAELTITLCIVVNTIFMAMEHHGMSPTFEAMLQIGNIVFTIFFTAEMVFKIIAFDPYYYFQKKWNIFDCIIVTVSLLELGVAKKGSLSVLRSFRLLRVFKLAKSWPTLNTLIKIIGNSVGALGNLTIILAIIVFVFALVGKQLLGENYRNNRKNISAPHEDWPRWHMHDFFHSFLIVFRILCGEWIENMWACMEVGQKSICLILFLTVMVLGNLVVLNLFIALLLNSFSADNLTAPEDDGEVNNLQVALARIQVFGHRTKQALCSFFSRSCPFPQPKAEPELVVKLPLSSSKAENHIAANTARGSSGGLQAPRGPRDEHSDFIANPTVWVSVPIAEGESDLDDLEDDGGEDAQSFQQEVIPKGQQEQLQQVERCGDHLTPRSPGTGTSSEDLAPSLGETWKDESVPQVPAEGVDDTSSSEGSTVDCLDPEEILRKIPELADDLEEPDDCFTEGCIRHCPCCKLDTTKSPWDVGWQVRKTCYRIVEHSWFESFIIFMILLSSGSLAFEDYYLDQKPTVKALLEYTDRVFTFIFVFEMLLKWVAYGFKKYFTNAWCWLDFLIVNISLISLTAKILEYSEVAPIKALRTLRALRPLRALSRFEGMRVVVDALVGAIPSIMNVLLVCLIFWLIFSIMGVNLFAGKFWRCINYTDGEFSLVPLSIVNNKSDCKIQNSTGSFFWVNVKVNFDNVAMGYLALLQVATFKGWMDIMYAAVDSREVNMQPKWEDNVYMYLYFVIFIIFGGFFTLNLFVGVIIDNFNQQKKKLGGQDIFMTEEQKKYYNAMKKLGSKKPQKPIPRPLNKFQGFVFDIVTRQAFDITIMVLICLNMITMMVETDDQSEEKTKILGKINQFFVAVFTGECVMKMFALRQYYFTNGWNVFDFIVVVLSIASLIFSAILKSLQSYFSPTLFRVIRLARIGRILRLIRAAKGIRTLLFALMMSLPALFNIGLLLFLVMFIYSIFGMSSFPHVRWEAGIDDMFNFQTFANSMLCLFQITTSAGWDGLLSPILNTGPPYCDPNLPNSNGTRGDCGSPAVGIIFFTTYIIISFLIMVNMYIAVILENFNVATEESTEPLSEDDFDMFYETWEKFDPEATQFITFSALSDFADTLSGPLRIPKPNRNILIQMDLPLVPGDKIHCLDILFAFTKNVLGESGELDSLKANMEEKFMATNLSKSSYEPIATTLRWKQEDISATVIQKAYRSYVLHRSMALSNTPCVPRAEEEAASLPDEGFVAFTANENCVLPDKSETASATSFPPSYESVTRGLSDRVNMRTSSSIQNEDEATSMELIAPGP
T1 sequence (Q07699 19-218 partner): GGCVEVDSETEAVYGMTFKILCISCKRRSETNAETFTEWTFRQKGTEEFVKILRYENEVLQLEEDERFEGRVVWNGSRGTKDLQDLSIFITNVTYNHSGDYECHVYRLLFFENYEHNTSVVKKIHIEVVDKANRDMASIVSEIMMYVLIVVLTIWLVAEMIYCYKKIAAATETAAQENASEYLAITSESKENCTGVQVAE

For “6-[4-(difluoromethoxy)phenyl]-N-[(2-morpholinophenyl)methyl]pyridazine-4-carboxamide [Example 56]”, the IC50 (as a rule, the point on the concentration scale where inhibition reaches its midpoint) was less than 500 nM.

Turning to `O=C(NCc1cccnc1N1CCOCC1)c1cnnc(-c2ccc(OCC3CC3)c(Cl)c2)c1` [Example 1, 6-(3-chloro-4-(cyclopropylmethoxy)phenyl)-N-((2-morpholinopyridin-3-yl)methyl)pyridazine-4-carboxamide], the IC50 was less than 500 nM. The figure for `O=C(NCc1cccnc1N1CCOCC1)c1cnnc(-c2ccc(Cl)nc2)c1` [Example 2, 6-(6-chloro-3-pyridyl)-N-[(2-morpholino-3-pyridyl)methyl]pyridazine-4-carboxamide] is more than 1000 nM; for `O=C(NCc1cccnc1N1CCOCC1)c1cnnc(-c2cccc(Cl)c2)c1` [Example 3, 6-(3-chlorophenyl)-N-[(2-morpholino-3-pyridyl)methyl]pyridazine-4-carboxamide] it is 500 to 1000 nM. With `Cc1cc(Cl)ccc1-c1cc(C(=O)NCc2cccnc2N2CCOCC2)cnn1` [Example 4, 6-(4-chloro-2-methyl-phenyl)-N-[(2-morpholino-3-pyridyl)methyl]pyridazine-4-carboxamide], the IC50 was less than 500 nM.

On to `CC(C)COc1ccc(-c2cc(C(=O)NCc3cccnc3N3CCOCC3)cnn2)cc1` [Example 5, 6-(4-isobutoxyphenyl)-N-[(2-morpholino-3-pyridyl)methyl]pyridazine-4-carboxamide], for which the IC50 is less than 500 nM. Take `O=C(NCc1cccnc1N1CCOCC1)c1cnnc(-c2ccc(OC(F)(F)F)cc2)c1` [Example 6, N-[(2-morpholino-3-pyridyl)methyl]-6-[4-(trifluoromethoxy)phenyl]pyridazine-4-carboxamide]: the IC50 was less than 500 nM. The result for `O=C(NCc1cccnc1N1CCOCC1)c1cnnc(-c2ccc(OCC(F)(F)F)cc2)c1` [Example 7, N-[(2-morpholino-3-pyridyl)methyl]-6-[4-(2,2,2-trifluoroethoxy)phenyl]pyridazine-4-carboxamide] reads less than 500 nM. Take `O=C(NCc1cccnc1N1CCOCC1)c1cnnc(-c2ccc(OCC3CC3)cc2)c1` [Example 8, 6-[4-(cyclopropylmethoxy)phenyl]-N-[(2-morpholino-3-pyridyl)methyl]pyridazine-4-carboxamide]: the IC50 was less than 500 nM.

For `CCOc1ccc(-c2cc(C(=O)NCc3cccnc3N3CCOCC3)cnn2)cc1Cl` [Example 9, 6-(3-chloro-4-ethoxy-phenyl)-N-[(2-morpholino-3-pyridyl)methyl]pyridazine-4-carboxamide], the half-inhibitory concentration (IC50) was less than 500 nM. The result for `CCCOc1ccc(-c2cc(C(=O)NCc3cccnc3N3CCOCC3)cnn2)cc1Cl` [Example 10, 6-(3-chloro-4-propoxy-phenyl)-N-[(2-morpholino-3-pyridyl)methyl]pyridazine-4-carboxamide] reads less than 500 nM; that for `CC(C)Oc1ccc(-c2cc(C(=O)NCc3cccnc3N3CCOCC3)cnn2)cc1Cl` [Example 11, 6-(3-chloro-4-isopropoxy-phenyl)-N-[(2-morpholino-3-pyridyl)methyl]pyridazine-4-carboxamide], less than 500 nM. `CCOc1ccc(-c2cc(C(=O)NCc3cccnc3N3CCOCC3)cnn2)cc1F` [Example 12, 6-(4-ethoxy-3-fluoro-phenyl)-N-[(2-morpholino-3-pyridyl)methyl]pyridazine-4-carboxamide]: the half-maximal inhibitory concentration (IC50) was less than 500 nM. For `CCCOc1ccc(-c2cc(C(=O)NCc3cccnc3N3CCOCC3)cnn2)cc1F` [Example 13, 6-(3-fluoro-4-propoxy-phenyl)-N-[(2-morpholino-3-pyridyl)methyl]pyridazine-4-carboxamide], the IC50 is less than 500 nM.

For `CC(C)Oc1ccc(-c2cc(C(=O)NCc3cccnc3N3CCOCC3)cnn2)cc1F` [Example 14, 6-(3-fluoro-4-isopropoxy-phenyl)-N-[(2-morpholino-3-pyridyl)methyl]pyridazine-4-carboxamide], the IC50 is less than 500 nM. For `O=C(NCc1cccnc1N1CCOCC1)c1cnnc(-c2ccc(OC3CC3)cc2)c1` [Example 15, 6-[4-(cyclopropoxy)phenyl]-N-[(2-morpholino-3-pyridyl)methyl]pyridazine-4-carboxamide], the IC50 was less than 500 nM. The figure for `O=C(NCc1cccnc1N1CCOCC1)c1cnnc(-c2ccc(OCC3CC3)nc2)c1` [Example 16, 6-[6-(cyclopropylmethoxy)-3-pyridyl]-N-[(2-morpholino-3-pyridyl)methyl]pyridazine-4-carboxamide] is less than 500 nM.

As to `O=C(NCc1cccnc1N1CCOCC1)c1cnnc(-c2ccc(Cl)cc2)c1` [Example 17, 6-(4-chlorophenyl)-N-[(2-morpholino-3-pyridyl)methyl]pyridazine-4-carboxamide], the IC50 is more than 1000 nM. The figure for `O=C(NCc1cccnc1N1CC2(COC2)C1)c1cnnc(-c2ccc(OCC3CC3)c(Cl)c2)c1` [Example 19, 6-[3-chloro-4-(cyclopropylmethoxy)phenyl]-N-[[2-(2-oxa-6-azaspiro[3.3]heptan-6-yl)-3-pyridyl]methyl]pyridazine-4-carboxamide] is less than 500 nM; for `O=C(NCc1cccnc1OCC(F)(F)F)c1cnnc(-c2ccc(OCC3CC3)c(Cl)c2)c1` [Example 20, 6-[3-chloro-4-(cyclopropylmethoxy)phenyl]-N-[[2-(2,2,2-trifluoroethoxy)-3-pyridyl]methyl]pyridazine-4-carboxamide] it is less than 500 nM; for `O=C(NCc1cccnc1N1CCCOCC1)c1cnnc(-c2ccc(OCC3CC3)c(Cl)c2)c1` [Example 21, 6-[3-chloro-4-(cyclopropylmethoxy)phenyl]-N-[[2-(1,4-oxazepan-4-yl)-3-pyridyl]methyl]pyridazine-4-carboxamide] it is less than 500 nM. The figure for `CC1CN(c2ncccc2CNC(=O)c2cnnc(-c3ccc(OCC4CC4)c(Cl)c3)c2)CCO1` (stereo not drawn) [Example 22, 6-[3-chloro-4-(cyclopropylmethoxy)phenyl]-N-[[2-(2-methylmorpholin-4-yl)-3-pyridyl]methyl]pyridazine-4-carboxamide] is less than 500 nM; for `CC1COCCN1c1ncccc1CNC(=O)c1cnnc(-c2ccc(OCC3CC3)c(Cl)c2)c1` (stereo not drawn) [Example 23, 6-[3-chloro-4-(cyclopropylmethoxy)phenyl]-N-[[2-(3-methylmorpholin-4-yl)-3-pyridyl]methyl]pyridazine-4-carboxamide] it is less than 500 nM. The figure for `Cc1ccc(CNC(=O)c2cnnc(-c3ccc(OCC4CC4)c(Cl)c3)c2)c(N2CCOCC2)n1` [Example 24, 6-[3-chloro-4-(cyclopropylmethoxy)phenyl]-N-[(6-methyl-2-morpholino-3-pyridyl)methyl]pyridazine-4-carboxamide] is less than 500 nM; for `Cc1ccnc(N2CCOCC2)c1CNC(=O)c1cnnc(-c2ccc(OCC3CC3)c(Cl)c2)c1` [Example 25, 6-[3-chloro-4-(cyclopropylmethoxy)phenyl]-N-[(4-methyl-2-morpholino-3-pyridyl)methyl]pyridazine-4-carboxamide] it is less than 500 nM; for `Cc1cnc(N2CCOCC2)c(CNC(=O)c2cnnc(-c3ccc(OCC4CC4)c(Cl)c3)c2)c1` [Example 26, 6-[3-chloro-4-(cyclopropylmethoxy)phenyl]-N-[(5-methyl-2-morpholino-3-pyridyl)methyl]pyridazine-4-carboxamide] it is more than 1000 nM. As to `O=C(NCc1ccccc1N1CCOCC1)c1cnnc(-c2ccc(OCC3CC3)c(Cl)c2)c1` [Example 27, 6-[3-chloro-4-(cyclopropylmethoxy)phenyl]-N-[(2-morpholinophenyl)methyl]pyridazine-4-carboxamide], the IC50 is less than 500 nM.

These data come from patent US11993581B2, “Pyridazine compounds for inhibiting Nav1.8” (Lieber Institute, Inc., priority 2018, dated 2024).
